Assay results: US7973066B2, “Pyrrolo[1,2-A]imidazoledione effective in the treatment of peripheral neurotoxicity induced by chemotherapeutic agents” (Neurotune AG, priority 2006, dated 2011)
Read-outs that look alike come from different tables or passages of the source.

Key:
[1] = tested on: Oxaliplatin-induced peripheral neuropathy; assay: Oxaliplatin-induced peripheral neuropathy, paw pressure test; format: in vivo, rat; conditions: for prevention of oxaliplatin-induced decrease of mechanical threshold: 100 mg/kg p.o. once daily starting three days before oxaliplatin, tested every week 30 min after administration; for effects on vehicle treated animals (paw pressure): vehicle treated rats
Protocol: The cumulative dose of oxliplatin was 36 mg/kg (Cavaletti G. et al. 2001, Eur. J. Cancer 37:2457-2463).
(§1) When a chemotherapeutic injection was to be given on a same day as behavioural testing, rats were injected after the measurement was taken.
(§2) Paw mechanical iper-sensitivity was determined using a Randall & Selitto apparatus exerting a force that increases at constant rate (32 g/s) in agreement with Leighton G. E. et al. (1988, Br. J. Pharmacol 93:553-560). The stimulus at which rats withdraw the paw was evaluated before and at different times after drugs treatment. Results represent the mean of mechanical thresholds expressed as grams. To avoid any possible damage to the animal paw the maximum applied force was fixed at 240 g.
Maximum hyperalgesia was obtained after a two weeks period of treatment. […] Compound administration was performed in the same days of chemotherapeutic injection.

[2] = tested on: CIPN; conditions: cancer patients with CIPN; cited from earlier work
[3] = tested on: Vincristine-induced peripheral neuropathy; assay: Vincristine-induced peripheral neuropathy, paw pressure test; format: in vivo, rat; conditions: for anti-hyperalgesic effect on mechanical hyperalgesia after repeated treatment: 30 mg/kg i.p. daily during last five days of vincristine, 1 hr and 12 hr after last administration; for reversal of vincristine mechanical hyper-sensitivity (paw pressure threshold): 100 mg/kg p.o., 30 and 60 min after treatment, 4 days after last vincristine injection; for activity on vehicle treated animals (paw pressure): vehicle treated rats, p.o.
Protocol: Vincristine was administered i.v. (150 μg/kg), every two days until a cumulative dose of 750 μg/kg was reached. Paw mechanical iper-sensitivity was evaluated 4 days after the last vincristine injection (Marchand F. et al. 2003, Brain Res. 980:117-120).
as §1, §2

[4] = tested on: Taxol-induced peripheral neuropathy; assay: Taxol-induced peripheral neuropathy, paw pressure test; format: in vivo, rat; conditions: for anti-hyperalgesic activity, i.v.: 3 mg/kg i.v.; for anti-hyperalgesic activity, i.v. / anti-hyperalgesic activity, i.p.: 30-90 min from administration; for anti-hyperalgesic activity, i.p.: 30 mg/kg i.p.; for rat paw pressure threshold, anti-hyperalgesic effect: 100 mg/kg given orally, 30 and 60 min after treatment
Protocol: Taxol neuropathy was induced by i.p. administration (0.5 mg/kg) once a day, on days 1, 3, 5, 8. Cumulative taxol dose was 2 mg/kg. The pharmacological test was performed 14-18 days after the last taxol injection (Polomano R. C. et al. 2001, Pain 94:293-304).
as §1, §2

[5] = tested on: HT29 human colon carcinoma cell line; assay: In vitro cytotoxicity and combination studies, ATPlite; conditions: for IC50: read-out: cytotoxic effect IC50
Protocol: In order to verify if the use of NiK-13317 for the treatment of CIPN would not affect the efficacy of anticancer treatments, the effect of NiK-13317 on cytotoxicity of known anticancer drugs was examined in vitro using HT29 human colon carcinoma cell line.
After 72 hours, cells were lysed and cell metabolic activity was quantified with ATPlite kit (Perkin Elmer Life Science) following manufacturer's recommendations. The ATP present in all metabolically active cells catalyses a reaction of transformation of D-luciferin by Luciferase, producing a luminescent signal measured using VICTOR^3™ Multi Label Reader (Perkin Elmer). Results were expressed as percentage of luminescence produced (i.e. ATP produced) compared to the control. Complete concentration-response curves with anticancer drugs were constructed in order to identify the concentrations producing a submaximal and a maximal cytotoxic effect, to be utilized for combination experiments.

[6] = tested on: cisplatin-induced pain syndrome; conditions: 51 patients, maximum dose 100 mg/day; cited from earlier work
[7] = tested on: CIPN; conditions: phase III, 10 weeks of therapy; cited from earlier work

Compound: NCC1(CC(=O)O)CCCCC1 [gabapentin]
- prevention of oxaliplatin-induced decrease of mechanical threshold [1]: only a moderated anti-hyperalgesic effect
- anti-hyperalgesic activity, pharmacodynamic experiment, 30 min ([1]; after 3 weeks of oxaliplatin, p.o., 30 min after treatment): only a moderate effect
- effects on vehicle treated animals (paw pressure) ([1]; p.o.): Neither NiK-13317 or gabapentin induced significant effects
- adverse side effects such as nystagmus and dizziness [2]: significant more adverse side effects
- reduction of pain intensity (NRS score), sensory neuropathy (ECOG rating), and other adverse events [2]: failed to reduce
- anti-hyperalgesic effect on mechanical hyperalgesia after repeated treatment [3]: no significant effects
- reversal of vincristine mechanical hyper-sensitivity (paw pressure threshold) [3]: lacked of any significant effects
- activity on vehicle treated animals (paw pressure) [3]: devoid of any significant activity
- anti-hyperalgesic activity, i.v. [4]: lacked of any significant effect
- anti-hyperalgesic activity, i.p. [4]: lacked of any significant effect
- rat paw pressure threshold, anti-hyperalgesic effect [4]: not able to induce any anti-hyperalgesic effect

Compound: Cc1ccc(N2C(=O)CN3C(=O)CCC32)cc1 (racemic) [NiK-13317, racemic 1-(4-Methylphenyl)dihydro-1H-pyrrolo[1,2-a]imidazole-2,5(3H,6H)-dione]
- prevention of oxaliplatin-induced decrease of mechanical threshold [1]: completely prevented
- anti-hyperalgesic activity, pharmacodynamic experiment, 8 hr ([1]; after 3 weeks of oxaliplatin, 100 mg/kg p.o., 8 hr after treatment): still active
- anti-hyperalgesic activity, pharmacodynamic experiment, 30 min and 4 hr ([1]; after 3 weeks of oxaliplatin, given orally, 30 min and 4 hr after administration): active
- effects on vehicle treated animals (paw pressure) ([1]; p.o.): Neither NiK-13317 or gabapentin induced significant effects
- anti-hyperalgesic effect on mechanical hyperalgesia after repeated treatment [3]: statistically significant (p<0.01) anti-hyperalgesic effect
- development of tolerance after repeated treatment ([3]; 30 mg/kg i.p. daily, 5 days): without development of tolerance
- anti-hyperalgesic effect 23 hr after the 4th administration ([3]; 30 mg/kg i.p. daily, 23 hr after 4th administration (1 hr before last injection)): statistically significant effect (p<0.05)
- reversal of vincristine mechanical hyper-sensitivity (paw pressure threshold) [3]: pronounced significant reversal
- activity on vehicle treated animals (paw pressure) [3]: devoid of any significant activity
- anti-hyperalgesic activity, i.v. [4]: active
- anti-hyperalgesic activity, i.p. [4]: active
- rat paw pressure threshold, anti-hyperalgesic effect [4]: significantly increased

Compound: CC(=O)O[C@H]1C(=O)[C@@]2(C)[C@H]([C@H](OC(=O)c3ccccc3)[C@]3(O)C[C@H](OC(=O)[C@H](O)[C@@H](NC(=O)c4ccccc4)c4ccccc4)C(C)=C1C3(C)C)[C@]1(OC(C)=O)CO[C@@H]1C[C@@H]2O [taxol]
- concentration of maximal cytotoxic effect ([5]; HT29 cells, 72 hours, ATPlite): 100 nM
- IC50 ([5]; Homo sapiens, HT-29, 72 h): 8 nM
- mechanical hyperalgesia produced by taxol treatment ([4]; taxol 0.5 mg/kg i.p. on days 1, 3, 5, 8): significant mechanical hyperalgesia

Compound: CC[C@]1(O)C[C@H]2CN(CCc3c([nH]c4ccccc34)[C@@](C(=O)OC)(c3cc4c(cc3OC)N(C=O)[C@H]3[C@@](O)(C(=O)OC)[C@H](OC(C)=O)[C@]5(CC)C=CCN6CC[C@]43[C@@H]65)C2)C1 [vincristine]
- concentration of maximal cytotoxic effect ([5]; HT29 cells, 72 hours, ATPlite): 100 nM
- IC50 ([5]; Homo sapiens, HT-29, 72 h): 7 nM
- mechanical hyperalgesia produced by vincristine treatment (reduction of paw pressure threshold) ([3]; vincristine 150 μg/kg i.v. every two days, cumulative 750 μg/kg): marked and prolonged mechanical hyperalgesia

Compound: CNCCC=C1c2ccccc2CCc2ccccc21 [nortriptyline]
- efficacy over placebo on cisplatin-induced pain syndrome [6]: lack of nortriptyline efficacy over placebo

Compound: O=C1[O][Pt]2([NH][C@@H]3CCCC[C@H]3[NH]2)[O]C1=O [oxaliplatin]
- paw pressure threshold change caused by repeated oxaliplatin ([1]; oxaliplatin 2.4 mg/kg i.p., 5 consecutive days every week, evident from first week): decrease in paw pressure threshold
- IC50 ([5]; HT29 cells, 72 hours, ATPlite): 36000 nM

Compound: Cc1ccc(N2C(=O)CN3C(=O)CCC32)cc1 (single isomer, unassigned) [compound of formula (I), 1-(4-Methylphenyl)dihydro-1H-pyrrolo[1,2-a]imidazole-2,5(3H,6H)-dione]
- development of tolerance (general statement) ([3]; rat, in vivo): not to develop tolerance

Compound: Nc1nnc(-c2cccc(Cl)c2Cl)c(N)n1 [lamotrigine]
- reduction of CIPN [7]: failed to reduce CIPN
